Laboratory results as given in ChEMBL document CHEMBL2073908, “The effect of rifampin treatment on intestinal expression of human MRP transporters” (Am J Pathol, 2000).

Tests used:
[1] = molecular target: T1, ATP-binding cassette sub-family C member 2 (Homo sapiens, UniProt Q92887); test: TP_TRANSPORTER: Northern blot in vivo, apical membrane of enterocyte; format: functional, organism-based
[2] = molecular target: T1, ATP-binding cassette sub-family C member 2; test: TP_TRANSPORTER: Immunohistochemistry in vivo, apical membrane of enterocytes; format: functional, organism-based, Enterocyte apical membrane

T1 sequence (Q92887 whole entry): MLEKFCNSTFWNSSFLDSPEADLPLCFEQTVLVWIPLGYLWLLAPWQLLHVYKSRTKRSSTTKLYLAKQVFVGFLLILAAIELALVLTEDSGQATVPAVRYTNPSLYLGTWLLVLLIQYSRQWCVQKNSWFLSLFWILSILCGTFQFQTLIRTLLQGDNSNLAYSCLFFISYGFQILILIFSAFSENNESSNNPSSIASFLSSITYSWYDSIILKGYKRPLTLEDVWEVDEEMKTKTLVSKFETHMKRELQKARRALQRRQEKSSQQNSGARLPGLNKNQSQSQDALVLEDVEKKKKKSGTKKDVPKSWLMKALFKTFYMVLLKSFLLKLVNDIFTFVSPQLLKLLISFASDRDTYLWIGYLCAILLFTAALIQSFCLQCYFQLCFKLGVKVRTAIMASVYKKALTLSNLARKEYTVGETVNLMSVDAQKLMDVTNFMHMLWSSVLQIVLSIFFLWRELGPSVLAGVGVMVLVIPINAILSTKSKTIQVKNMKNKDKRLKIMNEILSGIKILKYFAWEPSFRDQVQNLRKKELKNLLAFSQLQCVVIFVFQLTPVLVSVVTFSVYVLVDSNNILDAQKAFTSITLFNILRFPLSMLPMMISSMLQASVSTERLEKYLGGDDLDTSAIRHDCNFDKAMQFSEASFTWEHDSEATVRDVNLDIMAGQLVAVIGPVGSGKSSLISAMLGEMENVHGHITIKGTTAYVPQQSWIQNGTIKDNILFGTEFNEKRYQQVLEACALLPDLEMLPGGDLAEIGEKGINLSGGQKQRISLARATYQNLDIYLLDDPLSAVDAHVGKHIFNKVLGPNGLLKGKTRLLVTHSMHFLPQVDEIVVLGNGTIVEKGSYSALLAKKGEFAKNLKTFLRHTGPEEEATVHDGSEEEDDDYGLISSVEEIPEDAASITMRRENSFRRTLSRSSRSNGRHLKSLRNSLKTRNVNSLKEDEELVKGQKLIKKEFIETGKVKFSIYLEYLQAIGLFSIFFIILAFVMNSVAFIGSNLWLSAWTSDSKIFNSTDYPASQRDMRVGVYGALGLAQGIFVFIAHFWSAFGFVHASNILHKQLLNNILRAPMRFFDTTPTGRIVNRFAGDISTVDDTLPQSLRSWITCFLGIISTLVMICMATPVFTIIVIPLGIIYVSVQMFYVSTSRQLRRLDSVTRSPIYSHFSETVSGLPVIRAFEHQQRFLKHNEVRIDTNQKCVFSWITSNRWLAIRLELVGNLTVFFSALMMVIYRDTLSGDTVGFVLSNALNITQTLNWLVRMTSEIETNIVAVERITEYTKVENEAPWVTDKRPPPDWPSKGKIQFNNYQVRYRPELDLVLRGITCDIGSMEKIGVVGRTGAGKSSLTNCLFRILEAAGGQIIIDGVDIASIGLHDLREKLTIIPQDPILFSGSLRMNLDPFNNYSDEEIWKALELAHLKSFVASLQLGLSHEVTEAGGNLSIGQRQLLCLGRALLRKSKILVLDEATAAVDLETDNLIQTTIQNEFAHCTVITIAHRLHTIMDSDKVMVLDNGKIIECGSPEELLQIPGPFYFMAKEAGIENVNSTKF

Q: What does the source list for `CO[C@H]1/C=C/O[C@@]2(C)Oc3c(C)c(O)c4c(O)c(c(/C=N/N5CCN(C)CC5)c(O)c4c3C2=O)NC(=O)/C(C)=C\C=C\[C@H](C)[C@H](O)[C@@H](C)[C@@H](O)[C@@H](C)[C@H](OC(C)=O)[C@@H]1C` [RIFAMPIN]?
A: Activity [1]: inducer [+]; Activity [2]: inducer [+]
